This note sets out measurements from patent publication US20220395496A1 (Hoffmann-La Roche Inc., priority 2019, published 2022).

The nature of series [1]: Human microsome stability assay. In kind it is in vitro ADME. As to conditions: human liver microsomes, 1 μM test compound, 0.5 mg/mL protein, 37° C., pH 7.4. How it is done:
Human Microsome Stability Assay
The human microsomal stability assay is used for early assessment of metabolic stability of a test compound in human liver microsomes. Compounds with high metabolic stability are considered to be desirable as they can provide favorable in vivo PK profiles and thus sufficient exposure in the targeted tissues or organs
Human liver microsomes (Cat. NO.: 452117, Corning, USA; Cat. NO.: H2610, Xenotech, USA) were preincubated with test compound for 10 minutes at 37° C. in 100 mM potassium phosphate buffer, pH 7.4. The reactions were initiated by adding NADPH regenerating system. The final incubation mixtures contained 1 μM test compound, 0.5 mg/mL liver microsomal protein, 1 mM MgCl2, 1 mM NADP, 1 unit/mL isocitric dehydrogenase and 6 mM isocitric acid in 100 mM potassium phosphate buffer, pH 7.4. After incubation times of 0, 3, 6, 9, 15 and 30 minutes at 37° C., 300 μL of cold acetonitrile (including internal standard) was added to 100 μL incubation mixture to terminate the reaction. Following precipitation and centrifugation, the amount of compound remaining in the samples were determined by LC-MS/MS. Controls of no NADPH regenerating system at zero and 30 minutes were also prepared and analyzed.
A general note: Liver microsomes are a subcellular fraction often used to study metabolism.

Series [2] addresses T1, human TLR7 (Homo sapiens, UniProt Q9NYK1).
T1 sequence (Q9NYK1 27-1049): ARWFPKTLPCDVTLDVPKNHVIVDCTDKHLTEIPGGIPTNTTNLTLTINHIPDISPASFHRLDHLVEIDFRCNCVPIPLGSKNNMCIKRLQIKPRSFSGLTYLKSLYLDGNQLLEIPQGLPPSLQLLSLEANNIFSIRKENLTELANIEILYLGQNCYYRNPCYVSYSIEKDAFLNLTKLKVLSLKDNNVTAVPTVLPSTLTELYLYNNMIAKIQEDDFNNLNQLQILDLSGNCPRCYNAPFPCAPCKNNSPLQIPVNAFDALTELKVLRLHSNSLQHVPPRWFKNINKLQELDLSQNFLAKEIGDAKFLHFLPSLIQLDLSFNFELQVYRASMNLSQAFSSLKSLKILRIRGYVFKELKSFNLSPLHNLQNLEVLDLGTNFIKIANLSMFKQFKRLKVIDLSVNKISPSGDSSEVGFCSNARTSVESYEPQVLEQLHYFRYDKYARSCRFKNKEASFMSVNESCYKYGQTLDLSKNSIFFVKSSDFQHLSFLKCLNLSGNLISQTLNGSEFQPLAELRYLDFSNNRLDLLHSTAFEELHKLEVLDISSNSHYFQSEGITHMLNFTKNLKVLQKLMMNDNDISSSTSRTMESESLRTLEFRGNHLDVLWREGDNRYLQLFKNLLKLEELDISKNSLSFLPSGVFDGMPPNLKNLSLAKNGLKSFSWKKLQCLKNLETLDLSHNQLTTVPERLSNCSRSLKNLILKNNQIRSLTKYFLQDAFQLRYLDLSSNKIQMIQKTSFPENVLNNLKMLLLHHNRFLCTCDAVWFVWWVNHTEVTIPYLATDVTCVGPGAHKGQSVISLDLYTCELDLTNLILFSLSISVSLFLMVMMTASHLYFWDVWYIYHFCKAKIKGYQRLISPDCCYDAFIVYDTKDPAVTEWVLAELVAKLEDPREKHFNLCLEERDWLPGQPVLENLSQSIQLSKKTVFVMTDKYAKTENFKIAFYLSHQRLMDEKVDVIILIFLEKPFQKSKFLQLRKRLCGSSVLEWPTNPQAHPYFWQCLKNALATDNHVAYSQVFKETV
Briefly: HEK293-Blue-hTLR-7 cells assay (SEAP reporter, R848 stimulation). Conditions: HEK293-Blue-hTLR7 cells, R848, 20 hrs; lowest tested concentration 0.0032. The format is cell-based. How it is done: The following tests were carried out in order to determine the activity of the compounds of this invention in HEK293-Blue-hTLR-7/8/9 cells assay.
HEK293-Blue-hTLR-7 Cells Assay:
A stable HEK293-Blue-hTLR-7 cell line was purchased from InvivoGen (Cat. #: hkb-htlr7, San Diego, Calif., USA). These cells were originally designed for studying the stimulation of human TLR7 by monitoring the activation of NF-κB. A SEAP (secreted embryonic alkaline phosphatase) reporter gene was placed under the control of the IFN-β minimal promoter fused to five NF-κB and AP-1-binding sites. The SEAP was induced by activating NF-κB and AP-1 via stimulating HEK-Blue hTLR7 cells with TLR7 ligands. Therefore the reporter expression was declined by TLR7 antagonist under the stimulation of a ligand, such as R848 (Resiquimod), for incubation of 20 hrs. The cell culture supernatant SEAP reporter activity was determined using QUANTI-Blue™ kit (Cat. #: rep-qb1, Invivogen, San Diego, Calif., USA) at a wavelength of 640 nm, a detection medium that turns purple or blue in the presence of alkaline phosphatase.
HEK293-Blue-hTLR7 cells were incubated at a density of 250,000˜450,000 cells/mL in a volume of 170 μL in a 96-well plate in Dulbecco's Modified Eagle's medium (DMEM) containing 4.5 g/L glucose, 50 U/mL penicillin, […], […], 2 mM L-glutamine, 10% (v/v) heat-inactivated fetal bovine serum with addition of 20 μL test compound in a serial dilution in the presence of final DMSO at 1% and 10 μL of 20 uM R848 in above DMEM, perform incubation under 37° C. in a CO2 incubator for 20 hrs. Then 20 μL of the supernatant from each well was incubated with 180 μL Quanti-blue substrate solution at 37° C. for 2 hrs and the absorbance was read at 620-655 nm using a spectrophotometer. The signalling pathway that TLR7 activation leads to downstream NF-κB activation has been widely accepted, and therefore similar reporter assay was modified for evaluating TLR7 antagonist.

SMILES strings stand for the structures.

`C[C@H]1C[C@@H](NCc2cnc(N3CCNCC3)nc2)CN(c2ccc(C#N)c3ncccc23)C1` [Example 17, 5-[(3S,5R)-3-methyl-5-[(2-piperazin-1-ylpyrimidin-5-yl)methylamino]-1-piperidyl]quinoline-8-carbonitrile]: the HLM in series [1] was determined as 6.8 mL/min/kg. The IC50 (commonly the concentration needed to halve the response being measured) in series [2] stood at 7 nM.
For `C[C@H]1C[C@@H](NCc2ccc(N3CCNCC3)nc2)CN(c2ccc(C#N)c3ncccc23)C1` [Example 10], in series [1], the HLM came out at 7.4 mL/min/kg. Moreover, the half-inhibitory concentration (IC50) in series [2] was determined as 7 nM.
Regarding `C[C@H]1C[C@@H](N2Cc3ccc(N4CCNCC4)cc3C2)CN(c2ccc(C#N)c3ncccc23)C1` [Example 12, 5-[(3S,5R)-3-methyl-5-(5-piperazin-1-ylisoindolin-2-yl)-1-piperidyl]quinoline-8-carbonitrile], the HLM in series [1] came out at 6.2 mL/min/kg. In series [2], this compound came in with an IC50 of 7 nM.
`C[C@H]1C[C@@H](N2Cc3ccccc3C2)CN(c2ccc(C#N)c3ncccc23)C1` [Example R2, reference compound]: in series [1], the HLM was determined as 18.4 mL/min/kg. Besides, the IC50 in series [2] came to 48 nM.
On to `C[C@H]1C[C@@H](NCc2ccc(C3CCNCC3)cc2)CN(c2ccc(C#N)c3ncccc23)C1` [Example 2, 5-[(3S,5R)-3-methyl-5-[[4-(4-piperidyl)phenyl]methylamino]-1-piperidyl]quinoline-8-carbonitrile], for which, in series [1], the HLM was 7.0 mL/min/kg. In series [2], this compound yielded an IC50 of 32 nM.
For the compound `C[C@H]1C[C@@H](NCc2ccc(N3CCNCC3)cc2)CN(c2ccc(C#N)n3nccc23)C1` [Example 21, 4-[(3S,5R)-3-methyl-5-[(4-piperazin-1-ylphenyl)methylamino]-1-piperidyl]pyrazolo[1,5-a]pyridine-7-carbonitrile], the HLM in series [1] came out at 6.2 mL/min/kg. The same compound gave an IC50 in series [2] of 63 nM.
As to `C[C@H]1C[C@@H](NCc2ccccc2)CN(c2ccc(C#N)c3ncccc23)C1` [Example R1, reference compound], the HLM in series [1] came out at 17.3 mL/min/kg. In series [2], this compound came in with an IC50 of 89 nM.
For `C[C@H]1C[C@@H](NCc2ccc(N3CCNCC3)cc2)CN(c2ccc(C#N)c3ncccc23)C1` [Example 1, 5-[(3S,5R)-3-methyl-5-[(4-piperazin-1-ylphenyl)methylamino]1-piperidyl]quinoline-8-carbonitrile], in that order: 7.3 mL/min/kg and 16 nM.
Take `C[C@H]1C[C@@H](N2Cc3cc(N4CCNCC4)cnc3C2)CN(c2ccc(C#N)c3ncccc23)C1` [Example 23, 5-[(3S,5R)-3-methyl-5-(3-piperazin-1-yl-5,7-dihydropyrrolo[3,4-b]pyridin-6-yl)-1-piperidyl]quinoline-8-carbonitrile]: in series [1], the HLM was 7.3 mL/min/kg. The IC50 in series [2] is 23 nM.
